#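 Following 48 hours of exposure in 96-well plates, responses at five concentrations were used to interpolate endpoints linearly. At the GI50, growth is halved. TGI is the concentration that stops growth completely.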
# Legend:
# Experiment in all cases: NCI tumour cell line growth inhibition, 48 h
# HS 578T breast = test system: HS 578T breast
# SNB-75 CNS = test system: SNB-75 CNS
# TK-10 renal = test system: TK-10 renal
# SK-MEL-2 melanoma = test system: SK-MEL-2 melanoma
# RPMI-8226 leukemia = test system: RPMI-8226 leukemia
# SR leukemia = test system: SR leukemia
# SN12C renal = test system: SN12C renal
# MOLT-4 leukemia = test system: MOLT-4 leukemia
# MCF7 breast = test system: MCF7 breast
# LOX IMVI melanoma = test system: LOX IMVI melanoma
# HOP-62 NSCLC = test system: HOP-62 NSCLC
# DU-145 prostate = test system: DU-145 prostate
# HOP-92 NSCLC = test system: HOP-92 NSCLC
# SF-295 CNS = test system: SF-295 CNS
# MDA-MB-231 breast = test system: MDA-MB-231 breast
# OVCAR-8 ovarian = test system: OVCAR-8 ovarian
# NCI/ADR-RES ovarian = test system: NCI/ADR-RES ovarian
# NCI-H460 lung = test system: NCI-H460 lung
# SF-539 CNS = test system: SF-539 CNS
# MDA-MB-435 = test system: MDA-MB-435
# UO-31 renal = test system: UO-31 renal
# K-562 leukemia = test system: K-562 leukemia
# RXF 393 renal = test system: RXF 393 renal
# OVCAR-5 ovarian = test system: OVCAR-5 ovarian
# NCI-H226 lung = test system: NCI-H226 lung
# M14 melanoma = test system: M14 melanoma
# UACC-62 melanoma = test system: UACC-62 melanoma
# PC-3 prostate = test system: PC-3 prostate
# EKVX NSCLC = test system: EKVX NSCLC
# MALME-3M melanoma = test system: MALME-3M melanoma
# U251 CNS = test system: U251 CNS
# CAKI-1 renal = test system: CAKI-1 renal
# COLO 205 colon = test system: COLO 205 colon
# SK-MEL-28 melanoma = test system: SK-MEL-28 melanoma
# CCRF-CEM leukemia = test system: CCRF-CEM leukemia
# BT-549 breast = test system: BT-549 breast
# IGROV1 ovarian = test system: IGROV1 ovarian
# UACC-257 melanoma = test system: UACC-257 melanoma
# 786-0 renal = test system: 786-0 renal
# A498 renal = test system: A498 renal
# HT29 colon = test system: HT29 colon
# KM12 colon = test system: KM12 colon
# OVCAR-3 ovarian = test system: OVCAR-3 ovarian
# HL-60(TB) leukemia = test system: HL-60(TB) leukemia
# NCI-H522 lung = test system: NCI-H522 lung
# HCC-2998 colon = test system: HCC-2998 colon
# A549 NSCLC = test system: A549 NSCLC
# ACHN renal = test system: ACHN renal
# SW-620 colon = test system: SW-620 colon
# SF-268 CNS = test system: SF-268 CNS
# T-47D breast = test system: T-47D breast
# SNB-19 CNS = test system: SNB-19 CNS
# SK-OV-3 ovarian = test system: SK-OV-3 ovarian
# SK-MEL-5 melanoma = test system: SK-MEL-5 melanoma
# HCT-116 colon = test system: HCT-116 colon
# OVCAR-4 ovarian = test system: OVCAR-4 ovarian
# HCT-15 colon = test system: HCT-15 colon
structure (smiles),measurement,setting,value
CN(C)CCCOc1c2ccccc2nc2c1oc1ccc(Cl)cc12,GI50,HS 578T breast,3.76 µM
same,TGI,HS 578T breast,19.7 µM
same,GI50,SNB-75 CNS,2.6 µM
same,TGI,SNB-75 CNS,11.8 µM
same,GI50,TK-10 renal,5.16 µM
same,TGI,TK-10 renal,17.1 µM
same,GI50,SK-MEL-2 melanoma,6.35 µM
same,TGI,SK-MEL-2 melanoma,18.9 µM
same,GI50,RPMI-8226 leukemia,2.7 µM
same,TGI,RPMI-8226 leukemia,7.56 µM
same,GI50,SR leukemia,3.02 µM
same,TGI,SR leukemia,12.2 µM
same,GI50,SN12C renal,3.01 µM
same,TGI,SN12C renal,14.1 µM
same,GI50,MOLT-4 leukemia,3.19 µM
same,TGI,MOLT-4 leukemia,14 µM
same,GI50,MCF7 breast,2.88 µM
same,TGI,MCF7 breast,10.3 µM
same,GI50,LOX IMVI melanoma,1.48 µM
same,TGI,LOX IMVI melanoma,3.08 µM
same,GI50,HOP-62 NSCLC,3.66 µM
same,TGI,HOP-62 NSCLC,15.5 µM
same,GI50,DU-145 prostate,4.14 µM
same,TGI,DU-145 prostate,14.5 µM
same,GI50,HOP-92 NSCLC,1.75 µM
same,TGI,HOP-92 NSCLC,8.01 µM
same,GI50,SF-295 CNS,3.82 µM
same,TGI,SF-295 CNS,15 µM
same,GI50,MDA-MB-231 breast,2.64 µM
same,TGI,MDA-MB-231 breast,10.5 µM
same,GI50,OVCAR-8 ovarian,3.28 µM
same,TGI,OVCAR-8 ovarian,14.2 µM
same,GI50,NCI/ADR-RES ovarian,1.94 µM
same,TGI,NCI/ADR-RES ovarian,10.2 µM
same,GI50,NCI-H460 lung,3.06 µM
same,TGI,NCI-H460 lung,11.6 µM
same,GI50,SF-539 CNS,3.24 µM
same,TGI,SF-539 CNS,13 µM
same,GI50,MDA-MB-435,3.44 µM
same,TGI,MDA-MB-435,12.7 µM
same,GI50,UO-31 renal,2.32 µM
same,TGI,UO-31 renal,12.1 µM
same,GI50,K-562 leukemia,2.79 µM
same,TGI,K-562 leukemia,> 100 µM
same,GI50,RXF 393 renal,2.58 µM
same,TGI,RXF 393 renal,8.7 µM
same,GI50,OVCAR-5 ovarian,4.04 µM
same,TGI,OVCAR-5 ovarian,15.9 µM
same,GI50,NCI-H226 lung,3.02 µM
same,TGI,NCI-H226 lung,9.95 µM
same,GI50,M14 melanoma,3.04 µM
same,TGI,M14 melanoma,11 µM
same,GI50,UACC-62 melanoma,5.11 µM
same,TGI,UACC-62 melanoma,19.1 µM
same,GI50,PC-3 prostate,3.16 µM
same,TGI,PC-3 prostate,12.3 µM
same,GI50,EKVX NSCLC,3.68 µM
same,TGI,EKVX NSCLC,14.7 µM
same,GI50,MALME-3M melanoma,2.77 µM
same,TGI,MALME-3M melanoma,9.64 µM
same,GI50,U251 CNS,3.36 µM
same,TGI,U251 CNS,13.7 µM
same,GI50,CAKI-1 renal,2.63 µM
same,TGI,CAKI-1 renal,11.3 µM
same,GI50,COLO 205 colon,2.49 µM
same,TGI,COLO 205 colon,9.76 µM
same,GI50,SK-MEL-28 melanoma,4.56 µM
same,TGI,SK-MEL-28 melanoma,16.5 µM
same,GI50,CCRF-CEM leukemia,4.12 µM
same,TGI,CCRF-CEM leukemia,46.1 µM
same,GI50,BT-549 breast,5.17 µM
same,TGI,BT-549 breast,18.5 µM
same,GI50,IGROV1 ovarian,3.61 µM
same,TGI,IGROV1 ovarian,13 µM
same,GI50,UACC-257 melanoma,3.44 µM
same,TGI,UACC-257 melanoma,13.3 µM
same,GI50,786-0 renal,3.32 µM
same,TGI,786-0 renal,15.3 µM
same,GI50,A498 renal,10.4 µM
same,TGI,A498 renal,23.6 µM
same,GI50,HT29 colon,2.56 µM
same,TGI,HT29 colon,11.7 µM
same,GI50,KM12 colon,4.18 µM
same,TGI,KM12 colon,18.5 µM
same,GI50,OVCAR-3 ovarian,5.2 µM
same,TGI,OVCAR-3 ovarian,17.5 µM
same,GI50,HL-60(TB) leukemia,3.13 µM
same,TGI,HL-60(TB) leukemia,14.1 µM
same,GI50,NCI-H522 lung,2.76 µM
same,TGI,NCI-H522 lung,11.1 µM
same,GI50,HCC-2998 colon,3.12 µM
same,TGI,HCC-2998 colon,13.9 µM
same,GI50,A549 NSCLC,2.8 µM
same,TGI,A549 NSCLC,10.6 µM
same,GI50,ACHN renal,2.2 µM
same,TGI,ACHN renal,11.5 µM
same,GI50,SW-620 colon,1.92 µM
same,TGI,SW-620 colon,10.1 µM
same,GI50,SF-268 CNS,3.8 µM
same,TGI,SF-268 CNS,17 µM
same,GI50,T-47D breast,4.92 µM
same,TGI,T-47D breast,20.7 µM
same,GI50,SNB-19 CNS,3.93 µM
same,TGI,SNB-19 CNS,16.3 µM
same,GI50,SK-OV-3 ovarian,4.6 µM
same,TGI,SK-OV-3 ovarian,16.7 µM
same,GI50,SK-MEL-5 melanoma,9.28 µM
same,TGI,SK-MEL-5 melanoma,21.3 µM
same,GI50,HCT-116 colon,1.87 µM
same,TGI,HCT-116 colon,13 µM
same,GI50,OVCAR-4 ovarian,2.42 µM
same,TGI,OVCAR-4 ovarian,7.45 µM
same,GI50,HCT-15 colon,3.07 µM
same,TGI,HCT-15 colon,12.5 µM
Cc1ccc(C2CC(c3ccc(Nc4nc(NCCO)nc(Nc5ccc(Cl)cc5)n4)cc3)=Nc3c(N)nc(N)nc3N2)cc1 (stereo not drawn),GI50,HS 578T breast,1.79 µM
same,TGI,HS 578T breast,4.36 µM
same,GI50,SNB-75 CNS,1.62 µM
same,TGI,SNB-75 CNS,3.31 µM
same,GI50,TK-10 renal,1.9 µM
same,TGI,TK-10 renal,3.38 µM
same,GI50,SK-MEL-2 melanoma,1.81 µM
same,TGI,SK-MEL-2 melanoma,3.4 µM
same,GI50,SN12C renal,1.79 µM
same,TGI,SN12C renal,3.38 µM
same,GI50,MOLT-4 leukemia,1.38 µM
same,TGI,MOLT-4 leukemia,3.89 µM
same,GI50,MCF7 breast,1.46 µM
same,TGI,MCF7 breast,3.01 µM
same,GI50,LOX IMVI melanoma,1.65 µM
same,TGI,LOX IMVI melanoma,3.07 µM
same,GI50,HOP-62 NSCLC,1.68 µM
same,TGI,HOP-62 NSCLC,3.2 µM
same,GI50,DU-145 prostate,1.76 µM
same,TGI,DU-145 prostate,3.19 µM
same,GI50,HOP-92 NSCLC,1.3 µM
same,TGI,HOP-92 NSCLC,2.86 µM
same,GI50,SF-295 CNS,1.63 µM
same,TGI,SF-295 CNS,3.03 µM
same,GI50,MDA-MB-231 breast,1.67 µM
same,TGI,MDA-MB-231 breast,3.26 µM
same,GI50,OVCAR-8 ovarian,1.8 µM
same,TGI,OVCAR-8 ovarian,3.69 µM
same,GI50,NCI/ADR-RES ovarian,1.73 µM
same,TGI,NCI/ADR-RES ovarian,3.48 µM
same,GI50,NCI-H460 lung,1.8 µM
same,TGI,NCI-H460 lung,3.39 µM
same,GI50,SF-539 CNS,1.57 µM
same,TGI,SF-539 CNS,2.97 µM
same,GI50,MDA-MB-435,1.73 µM
same,TGI,MDA-MB-435,3.13 µM
same,GI50,UO-31 renal,1.64 µM
same,TGI,UO-31 renal,3 µM
same,GI50,K-562 leukemia,1.34 µM
same,TGI,K-562 leukemia,3.92 µM
same,GI50,OVCAR-5 ovarian,1.62 µM
same,TGI,OVCAR-5 ovarian,3.01 µM
same,GI50,NCI-H226 lung,16.7 µM
same,TGI,NCI-H226 lung,38.4 µM
same,GI50,M14 melanoma,1.84 µM
same,TGI,M14 melanoma,3.32 µM
same,GI50,UACC-62 melanoma,1.82 µM
same,TGI,UACC-62 melanoma,3.39 µM
same,GI50,PC-3 prostate,1.74 µM
same,TGI,PC-3 prostate,3.6 µM
same,GI50,EKVX NSCLC,1.55 µM
same,TGI,EKVX NSCLC,2.97 µM
same,GI50,MALME-3M melanoma,1.7 µM
same,TGI,MALME-3M melanoma,3.37 µM
same,GI50,U251 CNS,1.6 µM
same,TGI,U251 CNS,3.01 µM
same,GI50,CAKI-1 renal,1.64 µM
same,TGI,CAKI-1 renal,3.06 µM
same,GI50,COLO 205 colon,1.67 µM
same,TGI,COLO 205 colon,3.19 µM
same,GI50,SK-MEL-28 melanoma,1.77 µM
same,TGI,SK-MEL-28 melanoma,3.16 µM
same,GI50,BT-549 breast,1.73 µM
same,TGI,BT-549 breast,3.14 µM
same,GI50,IGROV1 ovarian,1.65 µM
same,TGI,IGROV1 ovarian,3.14 µM
same,GI50,UACC-257 melanoma,1.84 µM
same,TGI,UACC-257 melanoma,3.46 µM
same,GI50,786-0 renal,1.64 µM
same,TGI,786-0 renal,3.06 µM
same,GI50,A498 renal,3.85 µM
same,TGI,A498 renal,17.7 µM
same,GI50,HT29 colon,1.78 µM
same,TGI,HT29 colon,3.56 µM
same,GI50,KM12 colon,1.97 µM
same,TGI,KM12 colon,3.86 µM
same,GI50,HL-60(TB) leukemia,1.71 µM
same,TGI,HL-60(TB) leukemia,4.71 µM
same,GI50,NCI-H522 lung,1.72 µM
same,TGI,NCI-H522 lung,3.47 µM
same,GI50,HCC-2998 colon,1.55 µM
same,TGI,HCC-2998 colon,2.93 µM
same,GI50,A549 NSCLC,1.74 µM
same,TGI,A549 NSCLC,3.44 µM
same,GI50,ACHN renal,1.72 µM
same,TGI,ACHN renal,3.09 µM
same,GI50,SW-620 colon,1.79 µM
same,TGI,SW-620 colon,3.31 µM
same,GI50,SF-268 CNS,1.81 µM
same,TGI,SF-268 CNS,3.64 µM
same,GI50,T-47D breast,1.67 µM
same,TGI,T-47D breast,3.65 µM
same,GI50,SNB-19 CNS,1.57 µM
same,TGI,SNB-19 CNS,3 µM
same,GI50,SK-OV-3 ovarian,2.69 µM
same,TGI,SK-OV-3 ovarian,7.33 µM
same,GI50,SK-MEL-5 melanoma,1.56 µM
same,TGI,SK-MEL-5 melanoma,2.91 µM
same,GI50,HCT-116 colon,1.62 µM
same,TGI,HCT-116 colon,2.97 µM
same,GI50,OVCAR-4 ovarian,1.85 µM
same,TGI,OVCAR-4 ovarian,3.63 µM
same,GI50,HCT-15 colon,1.48 µM
same,TGI,HCT-15 colon,2.95 µM

# Source: PubChem BioAssay (NCI)
